Test results taken from US8802597B2, “Herbicidal pyrimidines” (E I du Pont de Nemours and Company, priority 2003, dated 2014).

Columns and labels:
Type in all cases: in vivo
[1] = tested on: pigweed (Amaranthus retroflexus); assay: Test B pre/postemergence
How it was run: (§1)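 Greenhouse whole-plant test; surfactant-containing non-phytotoxic solvent formulation; pre- and postemergence applications made simultaneously; post plants 2–18 cm, 1- to 4-leaf; visual scoring at 13–15 days on 0–100 scale relative to controls.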

[2] = tested on: morningglory (Ipomoea coccinea); assay: Test B pre/postemergence
How it was run: as §1

[3] = tested on: giant foxtail (Setaria faberii); assay: Test B pre/postemergence
How it was run: as §1

[4] = tested on: barnyardgrass (Echinochloa crus-galli); assay: Test B pre/postemergence
How it was run: as §1

[5] = tested on: cocklebur (Xanthium strumarium); assay: Test B pre/postemergence
How it was run: as §1

[6] = tested on: crabgrass (Digitaria sanguinalis); assay: Test B pre/postemergence
How it was run: as §1

[7] = tested on: lambsquarters (Chenopodium album); assay: Test B pre/postemergence; conditions: for Plant response rating, Lambsquarters: 500 g ai/ha
How it was run: as §1

[8] = tested on: velvetleaf (Abutilon theophrasti); assay: Test B pre/postemergence
How it was run: as §1

[9] = tested on: wheat (Triticum aestivum); assay: Test B pre/postemergence
How it was run: as §1

[10] = tested on: corn (Zea mays); assay: Test B pre/postemergence
How it was run: as §1

[11] = tested on: Surinam grass (Brachiaria decumbens); assay: Test B pre/postemergence
How it was run: as §1

[12] = tested on: barnyardgrass (Echinochloa crus-galli); assay: Test B flooded paddy test; conditions: Flood, 1000 g ai/ha; scale 0 (no effect) to 100 (complete control)
How it was run: (§2)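 Rice, umbrella sedge, duck salad and barnyardgrass grown to 2-leaf stage under flooded paddy conditions and treated with formulated test chemicals. Kept in greenhouse 13–15 days, then visually rated against untreated controls on a 0–100 scale (0 no effect, 100 complete control).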

[13] = tested on: umbrella sedge (Cyperus difformis); assay: Test B flooded paddy test; conditions: Flood, 1000 g ai/ha; scale 0 to 100
How it was run: as §2

[14] = tested on: rice (Oryza sativa); assay: Test B flooded paddy test; conditions: Flood, 1000 g ai/ha; scale 0 to 100
How it was run: as §2

[15] = tested on: duck salad (Heteranthera limosa); assay: Test B flooded paddy test; conditions: Flood, 1000 g ai/ha; scale 0 to 100
How it was run: as §2

[16] = tested on: wild oat (Avena fatua); assay: Test B postemergence
How it was run: as §1

[17] = tested on: blackgrass (Alopecurus myosuroides); assay: Test B postemergence
How it was run: as §1

[18] = Postemergence, 125 g ai/ha, scale 0 to 100 (0 no effect, 100 complete control)
[19] = Postemergence, 500 g ai/ha, scale 0 to 100
[20] = Preemergence, 125 g ai/ha, scale 0 to 100 (0 no effect, 100 complete control)
[21] = Preemergence, 500 g ai/ha, scale 0 to 100 (0 no effect, 100 complete control)
[22] = 125 g ai/ha, scale 0 to 100 (0 no effect, 100 complete control)

Compound: CC(=O)NN=Cc1nc(C2CC2)nc(N)c1Br [Compound 51]
- Pigweed plant response rating [1, 18]: 80
- Plant response rating, Pigweed [1, 19]: 90
- Plant response rating, Pigweed [1, 20]: 10
- Plant response rating, Pigweed [1, 21]: 70
- Morningglory plant response rating [2, 18]: 80
- Plant response rating, Morningglory [2, 19]: 90
- Plant response rating, Morningglory [2, 20]: 0
- Plant response rating, Morningglory [2, 21]: 40
- Foxtail, Giant plant response rating [3, 18]: 0
- Plant response rating, Foxtail, Giant [3, 19]: 30
- Plant response rating, Foxtail, Giant [3, 20]: 0
- Plant response rating, Foxtail, Giant [3, 21]: 0
- Barnyardgrass plant response rating [4, 18]: 20
- Plant response rating, Barnyardgrass [4, 19]: 60
- Plant response rating, Barnyardgrass [4, 20]: 0
- Plant response rating, Barnyardgrass [4, 21]: 0
- Cocklebur plant response rating [5, 18]: 80
- Plant response rating, Cocklebur [5, 19]: 90
- Plant response rating, Cocklebur [5, 20]: 0
- Plant response rating, Cocklebur [5, 21]: 20
- Crabgrass plant response rating [6, 18]: 30
- Plant response rating, Crabgrass [6, 19]: 60
- Plant response rating, Crabgrass [6, 20]: 0
- Plant response rating, Crabgrass [6, 21]: 0
- Lambsquarters plant response rating [7, 18]: 80
- Plant response rating, Lambsquarters ([7]; Postemergence, scale 0 to 100): 90
- Plant response rating, Lambsquarters ([7]; Preemergence, scale 0 to 100 (0 no effect, 100 complete control)): 80
- Velvetleaf plant response rating [8, 18]: 70
- Plant response rating, Velvetleaf [8, 19]: 80
- Plant response rating, Velvetleaf [8, 20]: 0
- Plant response rating, Velvetleaf [8, 21]: 0
- Wheat plant response rating [9, 18]: 30
- Plant response rating, Wheat [9, 19]: 40
- Plant response rating, Wheat [9, 20]: 0
- Plant response rating, Wheat [9, 21]: 0
- Corn plant response rating [10, 18]: 0
- Plant response rating, Corn [10, 19]: 0
- Plant response rating, Corn [10, 20]: 0
- Plant response rating, Corn [10, 21]: 0
- Surinam Grass plant response rating [11, 18]: 0
- Plant response rating, Surinam Grass [11, 19]: 40
- Plant response rating, Surinam Grass [11, 20]: 0
- Plant response rating, Surinam Grass [11, 21]: 0
- Plant response rating, Barnyardgrass [12]: 0
- Plant response rating, Sedge, Umbrella [13]: 0
- Plant response rating, Rice [14]: 0
- Plant response rating, Ducksalad [15]: 0
- Oat, Wild plant response rating [16, 22]: 20
- Plant response rating, Oat, Wild ([16]; 500 g ai/ha, scale 0 to 100): 30
- Blackgrass plant response rating [17, 22]: 20
- Plant response rating, Blackgrass ([17]; 500 g ai/ha, scale 0 to 100): 30
